Patent publication US7635693B2, “Methods for preventing and treating cancer using N-thiolated β-lactam compounds and analogs thereof” (University of South Florida, priority 2002, dated 2009)
Where “and” joins values, the source holds several entries; their conditions need not be identical. Equal values may be shown once. Read-outs that look alike come from different tables or passages of the source.

Tests used:
[1] = system: Jurkat T cells; assay: Flow cytometry cell cycle distribution and sub-G1 population, Jurkat T cells; format: cell-based, human; details: 50 μM; for increase in S phase population / sub-G1 apoptotic population: 5 hours
Protocol: Cell Death Differ 5:1062-75. At each time point, cells are harvested, counted, and washed twice with PBS. Cells (5×10^6) are suspended in 0.5 ml PBS, fixed in 5 ml of 70% ethanol for at least 2 h at −20° C., centrifuged, resuspended again in 1 ml of propidium iodide staining solution (50 μg propidium iodide, 100 units RNase A and 1 mg glucose per ml PBS), and incubated at room temperature for 30 minutes. The cells are then analyzed with FACScan (Becton Dickinson Immunocytometry, CA), ModFit LT and WinMDI V.2.8 cell cycle analysis software (Verity Software; Topsham, Me.). The cell cycle distribution is shown as the percentage of cells containing G1, S, G2, and M DNA judged by propidium iodide staining. The apoptotic population is determined as the percentage of cells with sub-G1 (<G1) DNA content.

[2] = system: caspase-3; assay: Cell-free caspase-3 activity assay on extracts of treated Jurkat T cells; format: cell-based, human; details: 50 μM, 8 hours
Protocol: (§1) Briefly, a prepared protein extract (20 μg) is incubated in a buffer containing 50 mM Tris/pH 8.0 along with each respective caspase substrate at 20 μM in a 96 well plate. The reaction mixture is incubated at 37° C. for 2 h.
A library of β-lactam analogs was screened for their ability to induce apoptosis. The screening procedure is accomplished by treating human Jurkat T cells with each compound at 50 μM for 8 hours. This is followed by preparation of cell lysates and measurement of apoptosis-specific caspase-3 activation (by cell-free caspase-3 activity assay) and PARP cleavage (by Western blotting).

[3] = system: PARP; assay: PARP cleavage, Western blot, Jurkat T cells; format: cell-based, human; details: 50 μM, 8 hours
Excerpt: A library of β-lactam analogs was screened for their ability to induce apoptosis. […] This is followed by preparation of cell lysates and measurement of apoptosis-specific caspase-3 activation (by cell-free caspase-3 activity assay) and PARP cleavage (by Western blotting).

[4] = system: Jurkat T cells; assay: TUNEL assay (DNA strand breaks), Jurkat T cells; format: cell-based, human; details: for TUNEL-positive cell population (DNA damage): 4 hour
Protocol: Terminal deoxynucleotidyl transferase-mediated UTP nick end labeling (TUNEL) was performed to determine the extent of DNA strand breaks. TUNEL assay was performed with an APO-Direct kit per the manufacturer's instructions. In brief, cells are fixed in 1% paraformaldehyde and ethanol at […] overnight and then permeabilized with Proteinase K. After permeabilization, Fluorescein conjugated dNTP's and TdT enzyme (Terminal Deoxynucleotidyl Transferase) are added to the cells. The TdT enzyme is then able to label free ends of DNA with Fluorescein conjugated dNTPs that could then be detected by flow cytometry.
The assay was performed following manufacturer's instruction using the APO-Direct kit. In brief, the harvested cells were fixed in 1% paraformaldehyde for 15 min on ice, washed with PBS, and then fixed again in 70% ethanol at −20° C. overnight. The cells were then incubated in DNA labeling solution (containing terminal deoxynucleotidyl transferase (TdT) enzyme, fluorescein-conjugated dUTP and reaction buffer) for 90 min at 37° C. After removing the DNA labeling solution by rinsing cells with Rinsing Buffer, the cells were incubated with the Propidium Iodide/RNase A solution, incubated for 30 min at room temperature in the dark, and then analyzed by flow cytometry within 3 h of staining.

[5] = system: p38 MAP kinase; assay: p38 phosphorylation, Western blot, Jurkat T cells; format: cell-based, human; details: for normalized increase in phosphorylation of p38 over control: FIG. 8D
Excerpt: It has been shown that multiple stimuli including DNA damaging agents induce apoptosis via activation of p38 MAP kinase (Kummer J L, et al., 1997, Apoptosis induced by withdrawal of trophic factors is mediated by p38 mitogen-activated protein kinase. J. Biol Chem 272:20490-4; Sanchez-Prieto R, et al., 2000, A role for the p38 mitogen-acitvated protein kinase pathway in the transcriptional activation of p53 on genotoxic stress by chemotherapeutic agents. Cancer Res 60:2464-72). […] The levels of Tyr-182 phosphorylated p38 protein were increased by 3-fold at 2 h and reached its maximum (˜9-fold) by 6 h (FIG. 8A). In has been shown that dual phosphorylation of p38 on Tyr-182 and Thr-180 activates this kinase (Raingeaud J, et al., 1995, Pro-inflammatory cytokines and environmental stress cause p38 mitogen-activated protein kinase activation by dual phosphorylation on tyrosine and threonine. J Biol Chem 270:7420-6). […] Therefore, lactam 1-induced DNA damage triggered activation of p38 before S population accumulation and apoptosis induction.

[6] = system: Jurkat T cells; format: cell-based, human; details: for non-viable cell population / cell death (trypan blue): 50 μM
Protocol: The trypan blue exclusion assay was performed by injecting 10 μl of cell suspension containing 0.2% trypan blue dye into a hemoicytometer and counting. Numbers of cells that absorbed the dye and those that excluded the dye are counted, from which the percentage of non-viable cell number to total cell number is calculated.

[7] = system: NK cells (YT line); details: YT cells, 2, 10, 25, and 50 μM, 24 h
Protocol: The trypan blue dye exclusion assay was performed by mixing 20 μl of cell suspension with 20 μl of 0.4% trypan blue dye before injecting into a hemocytometer and counting. The number of cells that absorbed the dye and those that exclude the dye were counted, from which the percentage of nonviable cell number to total cell number was calculated.

[8] = system: LNCaP cells; details: LNCaP cells in soft agar, 50 μM, 21 day-incubation
Protocol: The soft agar assay was performed as described previously (Menter D G, Sabichi A L, Lippman S M., 2000, Selenium effects on prostate cell growth. Cancer Epidemiol Biomarkers Prev 9:1171-82) with a few modifications. In brief, in a six-well plate, a bottom feeder layer (0.6% agar) was prepared with DMEM media containing 10% fetal bovine serum, 100 units/ml penicillin, and 100 μg/ml streptomycin. […] Plates were incubated at 37° C. in 5% CO2 in a humidified incubator for three weeks. MTT (1 mg/ml) was added to each well and incubated overnight to allow complete formation of purple formazan crystals. The plates were then scanned and photographed, and the number of colonies was quantified by Quantity one v.4.0.3 software (Bio-Rad, Hercules, Calif.).

[9] = system: PARP; details: YT cells, 2, 10, 25, and 50 μM, 12 h
Protocol: Human Jurkat T cells and human prostate cancer LNCaP cells were cultured in RPMI 1640 medium, supplemented with 10% fetal bovine serum, 100 units/ml penicillin, and 100 μg/ml streptomycin. Human YT cells were cultured in RPMI 1640 medium supplemented with 1 mM MEM sodium pyruvate solution, 0.1 mM MEM non-essential amino acids solution, 10% fetal bovine serum, 100 units/ml penicillin, and 100 μg/ml streptomycin. All cell lines were maintained at 37° C. in a humidified incubator with an atmosphere of 5% CO2. […] Briefly, cells were harvested, washed with PBS and homogenized in a lysis buffer (50 mM Tris-HCl, pH 8.0, 5 mM EDTA, 150 mM NaCl, 0.5% NP-40, 0.5 mM phenylmethylsulfonyl fluoride, and 0.5 mM dithiothreitol) for 30 min at 4° C. Afterwards, the lysates were centrifuged at 12000×g for 15 min at 4° C. and the supernatants collected as whole-cell extracts. Equal amounts of protein extract (60 μg) were resolved by SDS-polyacrylamide gel electrophoresis and transferred to a nitrocellulose membrane (Schleicher & Schuell, Keene, N. H.) using a Semi-Dry Transfer System (Bio-Rad, Hercules, Calif.). The enhanced chemiluminescence Western blot analysis was then performed using specific antibodies to the proteins of interest.

[10] = system: caspase-3; details: LNCaP cells, 48 h
Protocol: To measure cell-free caspase-3 activity, whole cell extracts (20-30 μg) from untreated or treated LNCaP cells were incubated with 20 μM of the fluorogenic substrate caspase-3/caspase-7 (Ac-DEVD-AMC) for 30 min at 37° C. in 100 μl of assay buffer (50 mM Tris, pH 8.0).

[11] = system: caspase-8; assay: Cell-free caspase-8 activity in lysates of VP-16-treated Jurkat T cells, inhibitor present; format: biochemical, human; details: lysates of Jurkat T cells treated with 50 μM VP-16 for 5 hours
Protocol: as §1

[12] = system: caspase-3; assay: Cell-free caspase-3 activity in lysates of VP-16-treated Jurkat T cells, inhibitor present; format: biochemical, human; details: lysates of Jurkat T cells treated with 50 μM VP-16 for 5 hours
Protocol: as §1

[13] = system: caspase-9; assay: Cell-free caspase-9 activity in lysates of VP-16-treated Jurkat T cells, inhibitor present; format: biochemical, human; details: lysates of Jurkat T cells treated with 50 μM VP-16 for 5 hours
Protocol: as §1

[14] = system: Jurkat T cells; assay: Morphological changes of treated Jurkat T cells; format: cell-based, human; details: 50 μM, 8 hours

CCSN1C(=O)C(OC)C1c1ccccc1Cl (racemic) [lactam 3]
increase in S phase population [1]: 15% | sub-G1 apoptotic population [1]: 10% | decrease of caspase-3 activity relative to lactam 1 [2]: ~50% | decrease of PARP cleavage relative to lactam 1 [3]: ~50% | TUNEL-positive cell population (DNA damage) ([4]; 50 μM): 16% | normalized increase in phosphorylation of p38 over control [5]: 3.2 fold

CCCCSN1C(=O)C(OC)C1c1ccccc1Cl (racemic) [lactam 4]
increase in S phase population [1]: 8% | sub-G1 apoptotic population [1]: 2% | decrease of caspase-3 activity relative to lactam 1 [2]: ~65% | decrease of PARP cleavage relative to lactam 1 [3]: ~65% | TUNEL-positive cell population (DNA damage) ([4]; 50 μM): 3% | normalized increase in phosphorylation of p38 over control [5]: 2.6 fold

O=C1CC2(CCCCC2)CN1 [lactam 5]
decrease of caspase-3 activity relative to lactam 1 [2]: ~20% | decrease of PARP cleavage relative to lactam 1 [3]: ~20%

COC1C(=O)N(SC)C1c1ccccc1Br (racemic) [lactam 23]
non-viable cell population / cell death (trypan blue) ([6]; 24 h): 55%

COC1C(=O)N(SC)C1c1ccccc1 (racemic) [lactam 48]
non-viable cell population / cell death (trypan blue) ([6]; 24 h): ~25%

COC1C(=O)N(SC)C1c1ccccc1F (racemic) [lactam 49]
non-viable cell population / cell death (trypan blue) ([6]; 24 h): ~35%

COC1C(=O)N(SC)C1c1ccccc1[N+](=O)[O-] (racemic) [lactam 47]
cell death (trypan blue) [7]: neither cell death | inhibition of colony formation [8]: ~100% | sub-G1 population ([1]; 12 h): 34% | sub-G1 population ([1]; 24 h): 57% | PARP cleavage [9]: nor PARP cleavage | increase in caspase-3 activity over control ([10]; 2 μM): 2 fold | increase in caspase-3 activity over control ([10]; 10 μM): 2.5 fold | increase in caspase-3 activity over control ([10]; 25 μM): 4.2 fold | cell death (trypan blue) ([6]; 10 μM, 24 h): 25% | cell death (trypan blue) ([6]; 25 μM, 3 h): 15% | trypan blue-positive cells ([6]; 25 μM, 6 h): 24% | cell death (trypan blue) ([6]; 25 μM, 24 h): 45% | non-viable cell population / cell death (trypan blue) ([6]; 24 h): ~94% and 80-90% | potency relative to lactam 1 ([6]; 24 h, trypan blue dose-response): ~2 fold | TUNEL-positive cells ([4]; 50 μM, 12-24 h): 82-90% | cells with DNA strand breaks (TUNEL) ([4]; 50 μM, 3 h): ~70%

CC(C)(C)OC(=O)NC(CC(=O)O)C(=O)CF [Boc-D-FMK, N-tert-butoxycarbonyl-Asp-fluoromethyl ketone]
direct inhibition of caspase-8 activity [11]: completely blocked | direct inhibition of caspase-3 activity [12]: completely blocked | direct inhibition of caspase-9 activity [13]: completely blocked | TUNEL positivity on co-treatment with lactam 1 ([4]; 4 hours, 50 μM lactam 1 plus PD 169316 at 30 μM or Boc-D-FMK at 50 μM): 97% | effect on lactam 1-induced p38 phosphorylation ([5]; 4 hours, 50 μM lactam 1 plus inhibitor at 50 μM): not affected

COC1C(=O)N(SC)C1c1ccccc1I (racemic) [lactam 46]
non-viable cell population / cell death (trypan blue) ([6]; 24 h): 60%

COC1C(=O)NC1c1ccccc1Cl (racemic) [lactam 2]
increase in S phase population [1]: did not induce accumulation of either S or sub-G1 populations | sub-G1 apoptotic population [1]: did not induce accumulation of either S or sub-G1 populations | caspase-3 activation [2]: induces neither caspase-3 activation nor PARP cleavage | PARP cleavage [3]: induces neither caspase-3 activation nor PARP cleavage | TUNEL-positive cell population (DNA damage) ([4]; 50 μM): did not cause any DNA damage | morphological changes [14]: no morphological changes

COC1C(=O)N(SC)C1c1ccc(Cl)cc1 (racemic) [lactam 6]
decrease of caspase-3 activity relative to lactam 1 [2]: ~20% | decrease of PARP cleavage relative to lactam 1 [3]: ~20%

COC1C(=O)N(SCc2ccccc2)C1c1ccccc1Cl (racemic) [lactam 7]
decrease of caspase-3 activity relative to lactam 1 [2]: ~70% | decrease of PARP cleavage relative to lactam 1 [3]: ~70%
